Test results taken from patent publication US20250340532A1, “HETEROCYCLIC COMPOUND CCR4 INHIBITOR AND USER THEREOF” (Xizang Haisco Pharmaceutical Co., Ltd., priority 2022, published 2025).

Columns and labels:
[1] = Pharmacokinetic test in monkeys; type: in vivo, cynomolgus monkeys; details: for AUC(0-t) / clearance / Vd: male, cynomolgus monkey, plasma; for Vd: read-out: Vdss
Protocol: Experimental animals: Male cynomolgus monkeys, 3-5 kg, 3-6 years old, 4 monkeys/compound. purchased from Suzhou Xishan Biotechnology Inc.
Experimental method: On the day of the experiment, 8 monkeys were randomly grouped according to their body weights. The animals were fasted with water available for 14 to 18 h one day before the administration, and were fed 4 h after the administration.
Before and after the administration, 1.0 mL of blood samples were drawn from the limb veins and placed in an EDTAK2 centrifuge tube. Centrifugation was carried out at 5000 rpm at 4° C. for 10 min, and the plasma was collected. The blood collection time points for the intravenous group and intragastric administration group were: 0 min, 5 min, 15 min, 30 min, 1 h, 2 h, 4 h, 6 h, 8 h, 10 h, 12 h, 24 h, and 48 h. Before analysis and detection, all samples were stored at −80° C., and a quantitative analysis of samples was performed using LC-MS/MS.

CCR4 = molecular target: T1, CCR4 (Homo sapiens, UniProt P51679); experiment: Calcium flow detected by FLIPR; type: cell-based; details: CCR4/HEK293 cells, agonist CCL17, Fluo-4 calcium signal
T1 construct: expressed in transfected cells; host or cells: HEK293
T1 sequence (P51679 1-360): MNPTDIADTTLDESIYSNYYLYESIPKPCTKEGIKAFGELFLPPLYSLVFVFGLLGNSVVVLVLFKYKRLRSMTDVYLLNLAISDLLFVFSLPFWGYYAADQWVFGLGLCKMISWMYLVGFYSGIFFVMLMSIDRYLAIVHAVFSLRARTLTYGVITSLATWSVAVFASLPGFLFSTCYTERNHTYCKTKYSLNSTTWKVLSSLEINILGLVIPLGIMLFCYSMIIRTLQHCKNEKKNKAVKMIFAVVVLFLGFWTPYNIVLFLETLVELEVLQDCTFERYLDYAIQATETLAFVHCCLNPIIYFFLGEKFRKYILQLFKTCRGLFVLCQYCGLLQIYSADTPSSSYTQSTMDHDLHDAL
Protocol: CCR4/HEK293 cells were added to a 384-well cell culture plate (Greiner #781946) at a rate of 20 μL/well (20,000 cells/well) and incubated overnight in a 37° C., 5% CO2 incubator (Incubator, Thermo). On the second day, the 384-well cell culture plate was taken out of the incubator and the culture medium was removed; Then, 20 μL of detection buffer and 20 μL of 2X Fluo-4 Direct™ (Invitrogen, Cat #F10471) were added. Then, compounds were added at 10 μL/well (compounds were subjected to 4-fold serial dilution, and the highest detection concentration was 10 μM), and the cells were incubated in a 37° C., 5% CO2 incubator for 50 min, and then incubated at room temperature for 10 min. The 384-well culture plate was placed in FLIPR ([…]), 10 μL of 6X agonist CCL17 was added by using an automatic loader, and the fluorescence signal was read immediately. The mean and standard error (Mean±SEM) were statistically analyzed using Graphpad Prism software, and the IC50 value was calculated.
The experimental results are shown in Table 3, where A represents IC50<100 nm; B represents 100 nM≤IC50<500 nM, and C represents 500 nM≤IC50.

[2] = Pharmacokinetic test in rats; type: in vivo, SD rats; details: for AUC / clearance / Vd: male, SD, rat, plasma; for Vd: read-out: Vdss
Protocol: 1.1 Experimental animals: male SD rats, about 220 g, 6-8 weeks old, 6 rats/compound. Purchased from Chengdu Ddossy Experimental Animals Co., Ltd.
1.2 Experimental design: on the day of the experiment, 36 SD rats were randomly grouped according to their body weights. The animals were fasted with water available for 12 to 14 h one day before the administration and were fed 4 h after the administration.
Before and after the administration, 0.15 ml of blood was taken from the orbit of the animals under isoflurane anesthesia and placed in an EDTAK2 centrifuge tube. The blood was centrifuged at 5000 rpm and 4° C. for 10 min to collect plasma. The blood collection time points for the intravenous administration group and intragastric administration group were: 0, 5 min, 15 min, 30 min, 1 h, 2 h, 4 h, 6 h, 8 h and 24 h. Before analysis and detection, all samples were stored at −80° C., and a quantitative analysis of samples was performed using LC-MS/MS.

[3] = Pharmacokinetic test in mice; type: in vivo, C57 mice; details: for AUC(0-t) / clearance / Vd: male, C57, mouse, plasma; for Vd: read-out: Vdss
Protocol: 1.1 Experimental animals: Male C57 mice, 20-25 g, 6 mice/compound. Purchased from Chengdu Ddossy Experimental Animals Co., Ltd.
1.2 Experimental design: On the day of the experiment, 24 C57 mice were randomly grouped according to their body weight. The animals were fasted with water available for 12 to 14 h one day before the administration and were fed 4 h after the administration.
Before and after the administration, 0.06 mL of blood was taken from the orbit of the animals under isoflurane anesthesia and placed in an EDTAK2 centrifuge tube. The blood was centrifuged at 5000 rpm and 4° C. for 10 min to collect plasma. The blood collection time points for the intravenous group and intragastric administration group were: 0 min, 5 min, 15 min, 30 min, 1 h, 2 h, 4 h, 7 h and 24 h. Before analysis and detection, all samples were stored at −80° C., and a quantitative analysis of samples was performed using LC-MS/MS.

[4] = Pharmacokinetic test in beagle dogs; type: in vivo; details: for AUC(0-t) / clearance / Vd: male, beagle, dog, plasma; for Vd: read-out: Vdss
Protocol: Experimental animals: male beagle dogs, about 8-11 kg, 6 beagle dogs/compound, purchased from Beijing Marshall Biotechnology Co., Ltd.
Experimental method: On the day of the experiment, 18 beagle dogs were randomly grouped according to their body weights. The animals were fasted with water available for 12 to 14 h one day before the administration and were fed 4 h after the administration.
Before and after the administration, 1 ml of blood was taken from the jugular veins or limb veins, and placed in an EDTAK2 centrifuge tube. Centrifugation was performed at 5000 rpm at 4° C. for 10 min, and plasma was collected. The blood collection time points for the intravenous group and intragastric administration group were: 0 min, 5 min, 15 min, 30 min, 1 h, 2 h, 4 h, 6 h, 8 h, 10 h, 12 h, 24 h, 48 h, and 72 h. Before analysis and detection, all samples were stored at −80° C. The samples were analyzed quantitatively by LC-MS/MS.

Cc1nc(N2CC(C3CN(C4CC(C)(C(=O)O)C4)CCO3)C2)nc(NC(C)c2ccc(Cl)cc2Cl)c1Cl (single isomer, unassigned) [Compound 9 isomer 3]
F ([1]; i.g. 5 mg/kg): 72.8 ± 57%
AUC(0-t) ([1]; iv, i.v. 1 mg/kg): 6930 ± 1440 ng·h/mL
clearance ([1]; iv, i.v. 1 mg/kg): 2.44 ± 0.51 mL/min/kg
Vd ([1]; iv, i.v. 1 mg/kg): 0.995 ± 0.088 L/kg
AUC(0-t) ([1]; po, i.g. 5 mg/kg): 25200 ± 19900 ng·h/mL
IC50 (CCR4): < 100 nM
F ([2]; i.g. 10 mg/kg): 98.7 ± 19%
AUC ([2]; iv, i.v. 2.5 mg/kg): 6280 ± 402 ng·h/mL
clearance ([2]; iv, i.v. 2.5 mg/kg): 6.61 ± 0.42 mL/min/kg
Vd ([2]; iv, i.v. 2.5 mg/kg): 1.49 ± 0.13 L/kg
AUC ([2]; po, i.g. 10 mg/kg): 24800 ± 4810 ng·h/mL

Cc1nc(N2CC(F)(C3CN(C4CC(C)(C(=O)O)C4)CCO3)C2)nc(N[C@H](C)c2ccc(Cl)cc2Cl)c1Cl (single isomer, unassigned) [Compound 64 isomer 3]
IC50 (CCR4): < 100 nM
F ([2]; i.g. 10 mg/kg): 108 ± 21%
AUC ([2]; iv, i.v. 2.5 mg/kg): 6020 ± 1390 ng·h/mL
clearance ([2]; iv, i.v. 2.5 mg/kg): 6.85 ± 1.2 mL/min/kg
Vd ([2]; iv, i.v. 2.5 mg/kg): 1.38 ± 0.25 L/kg
AUC ([2]; po, i.g. 10 mg/kg): 26100 ± 5150 ng·h/mL
F ([3]; i.g. 10 mg/kg): 118 ± 4.5%
AUC(0-t) ([3]; iv, i.v. 2.5 mg/kg): 4490 ± 361 ng·h/mL
clearance ([3]; iv, i.v. 2.5 mg/kg): 9.26 ± 0.73 mL/min/kg
Vd ([3]; iv, i.v. 2.5 mg/kg): 1.94 ± 0.053 L/kg
AUC(0-t) ([3]; po, i.g. 10 mg/kg): 21200 ± 815 ng·h/mL

Cc1nc(N2CCC(C3CN(C4CC(C)(C(=O)O)C4)CCO3)CC2)nc(NC(C)c2ccc(Cl)cc2Cl)c1Cl (single isomer, unassigned) [Compound 73 isomer 3]
F ([4]; i.g. 3 mg/kg): >98%
AUC(0-t) ([4]; iv, i.v. 1 mg/kg): 12100 ± 3170 ng·h/mL
clearance ([4]; iv, i.v. 1 mg/kg): 1.38 ± 0.4 mL/min/kg
Vd ([4]; iv, i.v. 1 mg/kg): 1.2 ± 0.16 L/kg
AUC(0-t) ([4]; po, i.g. 3 mg/kg): 37700 ± 10100 ng·h/mL
IC50 (CCR4): < 100 nM
F ([2]; i.g. 10 mg/kg): 80.3 ± 34%
AUC ([2]; iv, i.v. 2.5 mg/kg): 4630 ± 1030 ng·h/mL
clearance ([2]; iv, i.v. 2.5 mg/kg): 9.19 ± 2.1 mL/min/kg
Vd ([2]; iv, i.v. 2.5 mg/kg): 1.55 ± 0.091 L/kg
AUC ([2]; po, i.g. 10 mg/kg): 14900 ± 6380 ng·h/mL
F ([3]; i.g. 10 mg/kg): 90.4 ± 14%
AUC(0-t) ([3]; iv, i.v. 2.5 mg/kg): 7400 ± 385 ng·h/mL
clearance ([3]; iv, i.v. 2.5 mg/kg): 5.62 ± 0.29 mL/min/kg
Vd ([3]; iv, i.v. 2.5 mg/kg): 1.04 ± 0.055 L/kg
AUC(0-t) ([3]; po, i.g. 10 mg/kg): 26800 ± 4110 ng·h/mL

Cc1nc(N2CCC(C3CN(CCC(=O)O)CCO3)CC2)nc(NC(C)c2ccc(Cl)cc2Cl)c1Cl (single isomer, unassigned) [Compound 76 isomer 2]
IC50 (CCR4): < 100 nM
F ([3]; i.g. 10 mg/kg): 123 ± 14%
AUC(0-t) ([3]; iv, i.v. 2.5 mg/kg): 1790 ± 125 ng·h/mL
clearance ([3]; iv, i.v. 2.5 mg/kg): 23.1 ± 1.7 mL/min/kg
Vd ([3]; iv, i.v. 2.5 mg/kg): 1.44 ± 0.12 L/kg
AUC(0-t) ([3]; po, i.g. 10 mg/kg): 8840 ± 1010 ng·h/mL

Cc1nc(N2CC3C(C2)C3C2CN(C3CC(C)(C(=O)O)C3)CCO2)nc(NC(C)c2ccc(Cl)cc2Cl)c1Cl (single isomer, unassigned) [Compound 78 isomer 3]
IC50 (CCR4): < 100 nM
F ([2]; i.g. 10 mg/kg): >98%
AUC ([2]; iv, i.v. 2.5 mg/kg): 4560 ± 638 ng·h/mL
clearance ([2]; iv, i.v. 2.5 mg/kg): 9.22 ± 1.2 mL/min/kg
Vd ([2]; iv, i.v. 2.5 mg/kg): 2.07 ± 0.28 L/kg
AUC ([2]; po, i.g. 10 mg/kg): 28400 ± 7070 ng·h/mL

CC(Nc1cc(N2CCC(C3CN(C4CC(C)(C(=O)O)C4)CCO3)CC2)ccc1Cl)c1ccc(Cl)cc1Cl (single isomer, unassigned) [Compound 82 isomer 3]
F ([4]; i.g. 3 mg/kg): >98%
AUC(0-t) ([4]; iv, i.v. 1 mg/kg): 21100 ± 3840 ng·h/mL
clearance ([4]; iv, i.v. 1 mg/kg): 0.672 ± 0.14 mL/min/kg
Vd ([4]; iv, i.v. 1 mg/kg): 1.04 ± 0.2 L/kg
AUC(0-t) ([4]; po, i.g. 3 mg/kg): 68400 ± 7190 ng·h/mL
IC50 (CCR4): < 100 nM

C[C@@H](Nc1cc(N2CC(C3CN(C4CC(C)(C(=O)O)C4)CCO3)C2)ccc1Cl)c1ccc(Cl)cc1Cl (single isomer, unassigned) [Compound 83 isomer 1]
F ([1]; i.g. 5 mg/kg): 76.8 ± 27%
AUC(0-t) ([1]; iv, i.v. 1 mg/kg): 15800 ± 1740 ng·h/mL
clearance ([1]; iv, i.v. 1 mg/kg): 1.02 ± 0.14 mL/min/kg
Vd ([1]; iv, i.v. 1 mg/kg): 0.754 ± 0.15 L/kg
AUC(0-t) ([1]; po, i.g. 5 mg/kg): 60700 ± 21600 ng·h/mL
IC50 (CCR4): < 100 nM
F ([2]; i.g. 10 mg/kg): >98%
AUC ([2]; iv, i.v. 2.5 mg/kg): 7320 ± 1280 ng·h/mL
clearance ([2]; iv, i.v. 2.5 mg/kg): 5.53 ± 1 mL/min/kg
Vd ([2]; iv, i.v. 2.5 mg/kg): 2.25 ± 0.27 L/kg
AUC ([2]; po, i.g. 10 mg/kg): 37000 ± 2820 ng·h/mL
F ([3]; i.g. 10 mg/kg): 91.6 ± 12%
AUC(0-t) ([3]; iv, i.v. 2.5 mg/kg): 7250 ± 726 ng·h/mL
clearance ([3]; iv, i.v. 2.5 mg/kg): 5.69 ± 0.6 mL/min/kg
Vd ([3]; iv, i.v. 2.5 mg/kg): 1.77 ± 0.069 L/kg
AUC(0-t) ([3]; po, i.g. 10 mg/kg): 26600 ± 3520 ng·h/mL
